# In US8796001B2, “Metalloenzyme inhibitor compounds” (Viamet Pharmaceuticals, Inc., priority 2011, dated 2014):
# System: Puccinia recondita tritici = Puccinia triticina (PUCCRT)
# Experiment: Fungicidal activity vs. leaf rust on wheat plants
# Assay type: in vivo
# Settings: wheat (Yuma) sprayed at 50 ppm, inoculated the following day, rated 7-9 days later, read-out: Puccinia Rating (% Disease Control @ 50 ppm)
# Description: D. Evaluation of Fungicidal Activity vs. Leaf Rust (Causal Agent Puccinia Recondita Tritici=Puccinia Triticina; Bayer Code PUCCRT)
# Each pot contained 3-8 seedlings. These plants were sprayed until wet with the formulated test compounds. The compounds were formulated at 50 ppm in 10 vol. % acetone plus 90 vol. % Triton X water (deionized water 99.99 wt %+0.01 wt % Triton X100), giving a “formulated test compound.” Formulated test compounds were applied to plants using a turn table sprayer fitted with two opposing air atomization nozzles which delivered approximately 1500 L/ha of spray volume. On the following day, the leaves were inoculated with an aqueous spore suspension of Puccinia recondita tritici and the plants were kept in high humidity overnight to permit spores to germinate and infect the leaf. The plants were then transferred to a greenhouse until disease developed on untreated control plants. Disease severity was evaluated 7-9 days later, depending on the speed of disease development.
# In each case of Table 3, the Puccinia rating scale is as follows: […]
row,Compound,pest or weed control at 50 ppm [%]
1,"OC(Cn1cnnn1)(c1ccc(F)cc1F)C(F)(F)c1ccc(OCc2ccc(Cl)cc2F)cn1 (stereo not shown) [Compound 1, 1-(5-(4-Chloro-2-fluorobenzyloxy)pyridin-2-yl)-2-(2,4-difluorophenyl)-1,1-difluoro-3-(1H-tetrazol-1-yl)propan-2-ol]",80 to 100
2,"OC(Cn1cnnn1)(c1ccc(F)cc1F)C(F)(F)c1ccc(OCc2ccc(F)cc2F)cn1 (stereo not shown) [Compound 2, 1-(5-(2,4-Difluorobenzyloxy)pyridin-2-yl)-2-(2,4-difluorophenyl)-1,1-difluoro-3-(1H-tetrazol-1-yl)propan-2-ol]",80 to 100
3,"OC(Cn1cnnn1)(c1ccc(F)cc1F)C(F)(F)c1ccc(OCc2cccc(F)c2)cn1 (stereo not shown) [Compound 3, 2-(2,4-Difluorophenyl)-1,1-difluoro-1-(5-(3-fluorobenzyloxy)pyridin-2-yl)-3-(1H-tetrazol-1-yl)propan-2-ol]",80 to 100
4,"N#Cc1ccc(Oc2ccc(C(F)(F)C(O)(Cn3cnnn3)c3ccc(F)cc3F)nc2)cc1 (stereo not shown) [Compound 5, 4-(6-(2-(2,4-Difluorophenyl)-1,1-difluoro-2-hydroxy-3-(1H-tetrazol-1-yl)propyl)pyridin-3-yloxy)benzonitrile]",80 to 100
5,"OC(Cn1cnnn1)(c1ccc(F)cc1F)C(F)(F)c1ccc(Oc2ccc(F)cc2)cn1 (stereo not shown) [Compound 6, 2-(2,4-Difluorophenyl)-1,1-difluoro-1-(5-(4-fluorophenoxy)pyridin-2-yl)-3-(1H-tetrazol-1-yl)propan-2-ol]",80 to 100
6,"OC(Cn1cnnn1)(c1ccc(F)cc1F)C(F)(F)c1ccc(Oc2ccc(Cl)cc2)cn1 (stereo not shown) [Compound 7, 1-(5-(4-Chlorophenoxy)pyridin-2-yl)-2-(2,4-difluorophenyl)-1,1-difluoro-3-(1H-tetrazol-1-yl)propan-2-ol]",80 to 100
7,"COc1ccc(C(F)(F)C(O)(Cn2cnnn2)c2ccc(F)cc2F)nc1 (stereo not shown) [Compound 8, 2-(2,4-Difluorophenyl)-1,1-difluoro-1-(5-methoxypyridin-2-yl)-3-(1H-tetrazol-1-yl)propan-2-ol]",80 to 100
8,"N#Cc1ccc(COc2ccc(C(F)(F)C(O)(Cn3cnnn3)c3ccc(F)cc3F)nc2)cc1 (stereo not shown) [Compound 9, 4-(((6-(2-(2,4-Difluorophenyl)-1,1-difluoro-2-hydroxy-3-(1H-tetrazol-1-yl)propyl)pyridin-3-yl)oxy)methyl)benzonitrile]",80 to 100
9,"N#Cc1ccc(COc2ccc(C(F)(F)C(O)(Cn3cnnn3)c3ccc(F)cc3F)nc2)cc1F (stereo not shown) [Compound 10, 4-(((6-(2-(2,4-Difluorophenyl)-1,1-difluoro-2-hydroxy-3-(1H-tetrazol-1-yl)propyl)pyridin-3-yl)oxy)methyl)-2-fluorobenzonitrile]",80 to 100
10,"OC(Cn1cnnn1)(c1ccc(F)cc1F)C(F)(F)c1ccc(Oc2ccccc2)cn1 (stereo not shown) [Compound 11, 2-(2,4-Difluorophenyl)-1,1-difluoro-1-(5-phenoxypyridin-2-yl)-3-(1H-tetrazol-1-yl)propan-2-ol]",80 to 100
11,"OC(Cn1cnnn1)(c1ccc(F)cc1F)C(F)(F)c1ccc(OCC(F)(F)F)cn1 (stereo not shown) [Compound 12, 2-(2,4-Difluorophenyl)-1,1-difluoro-3-(1H-tetrazol-1-yl)-1-(5-(2,2,2-trifluoroethoxy)pyridin-2-yl)propan-2-ol]",80 to 100
12,"N#Cc1ccc(CSc2ccc(C(F)(F)C(O)(Cn3cnnn3)c3ccc(F)cc3F)nc2)c(F)c1 (stereo not shown) [Compound 15, 4-(((6-(2-(2,4-Difluorophenyl)-1,1-difluoro-2-hydroxy-3-(1H-tetrazol-1-yl)propyl)pyridin-3-yl)thio)methyl)-3-fluorobenzonitrile]",40 to 59
13,"N#Cc1ccc(Oc2ccc(C(F)(F)C(O)(Cn3cnnn3)c3ccc(F)cc3F)nc2)cc1F (stereo not shown) [Compound 17, 4-((6-(2-(2,4-Difluorophenyl)-1,1-difluoro-2-hydroxy-3-(1H-tetrazol-1-yl)propyl)pyridin-3-yl)oxy)-2-fluorobenzonitrile]",80 to 100
14,"OC(Cn1cnnn1)(c1ccc(F)cc1F)C(F)(F)c1ccc(OCc2ccc(OC(F)(F)F)cc2)cn1 (stereo not shown) [Compound 21, 2-(2,4-Difluorophenyl)-1,1-difluoro-3-(1H-tetrazol-1-yl)-1-(5-((4-(trifluoromethoxy)benzyl)oxy)pyridin-2-yl)propan-2-ol]",80 to 100
15,"OC(Cn1cnnn1)(c1ccc(F)cc1F)C(F)(F)c1ccc(OCc2ccc(C(F)(F)F)cc2)cn1 (stereo not shown) [Compound 22, 2-(2,4-Difluorophenyl)-1,1-difluoro-3-(1H-tetrazol-1-yl)-1-(5-((4-(trifluoromethyl)benzyl)oxy)pyridin-2-yl)propan-2-ol]",80 to 100
16,"OC(Cn1cnnn1)(c1ccc(F)cc1F)C(F)(F)c1ccc(OCc2cccc(F)c2F)cn1 (stereo not shown) [Compound 23, 1-(5-((2,3-Difluorobenzyl)oxy)pyridin-2-yl)-2-(2,4-difluorophenyl)-1,1-difluoro-3-(1H-tetrazol-1-yl)propan-2-ol]",80 to 100

row,Compound,pest or weed control at 50 ppm [%]
1,"OC(Cn1cnnn1)(c1ccc(F)cc1F)C(F)(F)c1ccc(OCc2ccc(C(F)(F)F)cc2F)cn1 (stereo not shown) [Compound 24, 2-(2,4-Difluorophenyl)-1,1-difluoro-1-(5-((2-fluoro-4-(trifluoromethyl)benzyl)oxy)pyridin-2-yl)-3-(1H-tetrazol-1-yl)propan-2-ol]",80 to 100
2,"OC(Cn1cnnn1)(c1ccc(F)cc1F)C(F)(F)c1ccc(OCc2cccc(C(F)(F)F)c2)cn1 (stereo not shown) [Compound 26, 2-(2,4-Difluorophenyl)-1,1-difluoro-3-(1H-tetrazol-1-yl)-1-(5-((3-(trifluoromethyl)benzyl)oxy)pyridin-2-yl)propan-2-ol]",80 to 100
3,"OC(Cn1cnnn1)(c1ccc(F)cc1F)C(F)(F)c1ccc(OCc2ccc(Cl)c(F)c2)cn1 (stereo not shown) [Compound 27, 1-(5-((4-Chloro-3-fluorobenzyl)oxy)pyridin-2-yl)-2-(2,4-difluorophenyl)-1,1-difluoro-3-(1H-tetrazol-1-yl)propan-2-ol]",80 to 100
4,"OC(Cn1cnnn1)(c1ccc(F)cc1F)C(F)(F)c1ccc(OCc2ccc(F)c(F)c2)cn1 (stereo not shown) [Compound 28, 1-(5-((3,4-Difluorobenzyl)oxy)pyridin-2-yl)-2-(2,4-difluorophenyl)-1,1-difluoro-3-(1H-tetrazol-1-yl)propan-2-ol]",80 to 100
5,"COc1cccc(COc2ccc(C(F)(F)C(O)(Cn3cnnn3)c3ccc(F)cc3F)nc2)c1 (stereo not shown) [Compound 34, 2-(2,4-Difluorophenyl)-1,1-difluoro-1-(5-((3-methoxybenzyl)oxy)pyridin-2-yl)-3-(1H-tetrazol-1-yl)propan-2-ol]",80 to 100
6,"OC(Cn1cnnn1)(c1ccc(F)cc1F)C(F)(F)c1ccc(OCc2cc(F)cc(F)c2)cn1 (stereo not shown) [Compound 35, 1-(5-((3,5-Difluorobenzyl)oxy)pyridin-2-yl)-2-(2,4-difluorophenyl)-1,1-difluoro-3-(1H-tetrazol-1-yl)propan-2-ol]",80 to 100
7,"OC(Cn1cnnn1)(c1ccc(F)cc1F)C(F)(F)c1ccc(OCc2ccccn2)cn1 (stereo not shown) [Compound 37, 2-(2,4-Difluorophenyl)-1,1-difluoro-1-(5-(pyridin-2-ylmethoxy)pyridin-2-yl)-3-(1H-tetrazol-1-yl)propan-2-ol]",80 to 100
8,"OC(Cn1cnnn1)(c1ccc(F)cc1F)C(F)(F)c1ccc(OCC2CC2)cn1 (stereo not shown) [Compound 39, 1-(5-(Cyclopropylmethoxy)pyridin-2-yl)-2-(2,4-difluorophenyl)-1,1-difluoro-3-(1H-tetrazol-1-yl)propan-2-ol]",80 to 100
9,"COc1ccc(COc2ccc(C(F)(F)C(O)(Cn3cnnn3)c3ccc(F)cc3F)nc2)cc1 (stereo not shown) [Compound 41, 2-(2,4-Difluorophenyl)-1,1-difluoro-1-(5-((4-methoxybenzyl)oxy)pyridin-2-yl)-3-(1H-tetrazol-1-yl)propan-2-ol]",80 to 100
10,"CC(C)Oc1ccc(C(F)(F)C(O)(Cn2cnnn2)c2ccc(F)cc2F)nc1 (stereo not shown) [Compound 42, 2-(2,4-Difluorophenyl)-1,1-difluoro-1-(5-isopropoxypyridin-2-yl)-3-(1H-tetrazol-1-yl)propan-2-ol]",80 to 100
11,"CC(C)COc1ccc(C(F)(F)C(O)(Cn2cnnn2)c2ccc(F)cc2F)nc1 (stereo not shown) [Compound 43, 2-(2,4-Difluorophenyl)-1,1-difluoro-1-(5-isobutoxypyridin-2-yl)-3-(1H-tetrazol-1-yl)propan-2-ol]",80 to 100
12,"OC(Cn1cncn1)(c1ccc(F)cc1F)C(F)(F)c1ccc(OCc2cccc(F)c2F)cn1 (stereo not shown) [Compound 45, 1-(5-((2,3-Difluorobenzyl)oxy)pyridin-2-yl)-2-(2,4-difluorophenyl)-1,1-difluoro-3-(1H-1,2,4-triazol-1-yl)propan-2-ol]",80 to 100
13,"OC(Cn1cnnn1)(c1ccc(F)cc1F)C(F)(F)c1ccc(OCc2ccccc2F)cn1 (stereo not shown) [Compound 46, 2-(2,4-Difluorophenyl)-1,1-difluoro-1-(5-((2-fluorobenzyl)oxy)pyridin-2-yl)-3-(1H-tetrazol-1-yl)propan-2-ol]",80 to 100
14,"CC(Oc1ccc(C(F)(F)C(O)(Cn2cnnn2)c2ccc(F)cc2F)nc1)C(F)(F)F (stereo not shown) [Compound 47, 2-(2,4-Difluorophenyl)-1,1-difluoro-3-(1H-tetrazol-1-yl)-1-(5-((1,1,1-trifluoropropan-2-yl)oxy)pyridin-2-yl)propan-2-ol]",80 to 100
15,"OC(Cn1cnnn1)(c1ccc(F)cc1F)C(F)(F)c1ccc(OCc2cccs2)cn1 (stereo not shown) [Compound 49, 2-(2,4-Difluorophenyl)-1,1-difluoro-3-(1H-tetrazol-1-yl)-1-(5-(thiophen-2-ylmethoxy)pyridin-2-yl)propan-2-ol]",80 to 100
